One assay has as its system RAW 264.7 cells. Put plainly: Boyden chamber transwell migration assay. Conditions: in the presence of Ang II; 2.5 μM, 12 hours. The assay is classed as cell-based, murine. The method, then:
HUVECs were seeded in the lower chambers of the Transwells (#CLS3464, Sigma-Aldrich) and cultured up to 80% confluence before treatment with or without AngII (100 nM) for 6 hours in OptiMEM I reduced serum medium (#31985-070, Gibco). RAW 264.7 cells starved with OptiMEM I overnight were seeded (2×10^5 per well) in the upper chambers of the transwells and treated with vehicle (ethanol), OA (2.5 μM) or NO2—OA (2.5 μM) for additional 12 hours. Cells on the upper chamber were then removed by gently scraping with a cotton swab, and the membranes were fixed in 4% PFA for 15 min and stained with 0.1% crystal violet for 15 min at room temperature. Images were acquired by AMG Evos XI Core Imaging System. Quantification of the positively stained area was performed using Image J v1.52s.

Assay [1] deals with oxLDL-induced Il1b and Mmp9 expression in BMDMs. Put plainly: Real-time PCR of oxLDL-induced pro-inflammatory genes in BMDMs. The assay is classed as cell-based, mouse. The conditions noted are these: BMDMs, vs control. The method, then:
FIG. 3. NO2—OA prevents oxLDL-induced NFκB activation and pro-inflammatory cytokine production. Primary BMDMs were pretreated with vehicle, OA (2.5 μM) or NO2—OA (2.5 μM) for 1 h, followed by treatment of oxLDL (50 to 100 μg/ml) for the indicated times. (A, B) Nuclear (A) and cytoplasmic protein (B) fractions were isolated 1 h after oxLDL treatment and subjected to western blot with antibodies against p65, lamin a/c (nuclear marker) and GAPDH (cytosolic marker). Representative western blot images of three independent experiments are shown. (C) Quantification of the p65 nuclear to cytoplasmic ratio by image studio (normalized by the internal control, n=3). (D-F) Following 8 h of oxLDL treatment, levels of IL6, MCP1 and TNFα in the cell medium were measured by ELISA (n=4). (G) Real-time PCR quantification of gene expression levels of IL1b and Mmp9 in total mRNA extracted from the BMDMs. (C) Ordinary one-way ANOVA followed by Tukey's test was performed. As of (D-F), the basal level contains several non-detectable values, so ordinary one-way ANOVA followed by correction of FDR were performed for the oxLDL-treated groups only. Ordinary one-way ANOVA followed by Tukey's test was performed for (G). Data presented as mean±SEM. A p<0.05 for both the main test and post hoc test was considered statistically significant.
Mice suprarenal aortas were collected after the measurement of their diameter. Human aortic aneurysm samples were obtained from the Department of Cardiac Surgery at the University of Michigan. Samples from humans and mice were snap-frozen in liquid nitrogen for later processing. RNA from tissue was extracted using TRIzol (#15596018, Invitrogen). RNA from cells was isolated with the RNeasy Mini Kit (#74106, QIAGEN). SuperScript™ III First-Strand Synthesis System (#18080051, Invitrogen) was used to reverse-transcribe mRNA into cDNA. Gene expression was quantified in triplicates by quantitative real-time PCR (qPCR) using IQ SYBR Green Supermix (#1708882, Bio-Rad) with the indicated gene primers.
For orientation: In qPCR the cycle at which signal appears reflects the starting amount.

Assay [2] has as its system Vcam1, MCP1, Icam1 gene expression in suprarenal aorta. Description: Real-time PCR gene expression in mouse suprarenal aorta. It is filed as in vivo. From the text:
FIG. 2. […] (A) Quantification of gene expression levels in the mice suprarenal aorta region by real-time PCR (n=3 to 4). (B, C) Serum cytokines levels measured by ELISA (n=8 to 11). (D) FACS of single cells isolated from the mice suprarenal aorta region. Each sample is the pool of cells from three mice (n=3). (E, F) Quantification of the percentage of CD45+ leukocytes and CD64+, CD11c+M1-like macrophages in total cells from the FACS analysis. Ordinary one-way ANOVA followed by Tukey's test was performed for (A), (E) and (F). For ELISA in (B) and (C), to avoid the effect of the non-detected data point, a non-parametric Kruskal-Wallis test followed by Dunn's multiple comparisons was performed by adding zero to the missing data point. Data presented as mean±SEM. A p<0.05 for both the main test and post hoc test was considered statistically significant.
Ten weeks old male C57BL/6J mice were purchased from The Jackson Laboratory. The murine AAA model induced by AngII/PCSK9 gain-of-function mutation is well-established. After acclimation for 1 week, mice were fed a western diet (TD.88137, Envigo) and intraperitoneally injected with 2×1011 genomic copies of AAV-PCSK9.D377Y (AAV serotype 8, Penn Vector Core). Two weeks later, each mouse was subcutaneously implanted with two osmotic pumps (Model #2004, Alzet). One was loaded with AngII (#H-1706, Bachem), releasing at a rate of 1,500ng/kg/min, while the other one was loaded with PEG-400, OA or NO2—OA at a delivery rate of 5 mg/kg/day for OA or NO2—OA. After 4-weeks infusion, mice were euthanized and the maximal outer diameter of the suprarenal aorta was assessed with a digital caliper by a third person blinded to the treatment. Suprarenal aortas with a maximal diameter ≥50% larger than standard size (≥1.2 mm) were considered as abdominal aortic aneurysms. […]
Mice suprarenal aortas were collected after the measurement of their diameter. […] Gene expression was quantified in triplicates by quantitative real-time PCR (qPCR) using IQ SYBR Green Supermix (#1708882, Bio-Rad) with the indicated gene primers.

The test system of the next assay is MMP2. Description: Gelatin zymography in BMDMs, MMP2. The assay is classed as cell-based, mouse. The conditions noted are these: 2.5 μM, 12 h. The method, then:
FIG. 4. NO2—OA inhibits PGE2-dependent EP4 cAMP downstream signaling. (A) Three parameters nonlinear regression of EP4 global fitting dose-response curve. […] (B) HTRF assay of cAMP-Gs coupled receptor. […] (D) Representative figure of gelatin zymography indicating MMP 2/9 activity. BMDMs were incubated with L-902,688 (100 nM) plus vehicle, OA (2.5 μM) or NO2—OA (2.5 μM) for 12 h, and MMP 2&9 activity was measured by gelatin zymography. For (A) and (B), three or four parameters, global or separate fitting, constraints, and the significance of EC50 were determined in Prism. Data presented as mean±SEM. A p<0.05 was considered statistically significant.
Freshly differentiated BMDMs were cultured in the bone marrow macrophage-differentiation media until 80% confluence. […] Then, the supernatant was collected and centrifuged to remove any residual debris. Measurement of MMP2 and MMP9 activity was performed by running the supernatant (using detergent-free loading buffer) in 1% gelatin gel, followed by staining with Coomassie blue.

With `CCCCCCCCC(=CCCCCCCCC(=O)O)[N+](=O)[O-]` [NO2—OA, 10-nitro-octadec-9-enoic acid], the endothelial-dependent macrophage migration entry with RAW 264.7 cells is on record as “significantly inhibits”. In addition, in assay [1], the “oxLDL-induced expression of Il1b” value is “significantly decreased” and the “oxLDL-induced expression of Mmp9” value was “significantly decreased”. Also, in assay [2] (vs vehicle), the “expression of intercellular adhesion molecule 1 (Icam1)” value is given as “not statistically significant”. Moreover, in assay [2] (vs vehicle control), the “expression of MCP1 gene” value is on record as “significantly decreased” and the “expression of vascular cell adhesion protein 1 (Vcam1) gene” value is “significantly decreased”. Further, the “MMP2 activity (gelatin zymography)” value in the assay with MMP2 is “no significant changes”.
